Source: patent US20120129730A1, “GENERATION OF COMPOUND LIBRARIES UTILIZING MOLECULAR IMPRINTS INCLUDING A DOUBLE OR ANTI-IDIOTYPIC APPROACH” (KLAUS MOSBACH, priority 2001, published 2012)

Biological target: T1, tissue kallikrein (UniProt P00752)
T1 sequence (P00752 1-246): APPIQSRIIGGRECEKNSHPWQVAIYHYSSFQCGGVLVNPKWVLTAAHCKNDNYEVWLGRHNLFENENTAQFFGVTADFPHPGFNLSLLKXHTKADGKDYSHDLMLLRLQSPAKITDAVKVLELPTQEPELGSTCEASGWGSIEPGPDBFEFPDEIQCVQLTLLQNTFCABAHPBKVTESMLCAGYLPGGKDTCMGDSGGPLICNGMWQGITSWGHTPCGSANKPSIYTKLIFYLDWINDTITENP
Assay: Determination of inhibition constants (Ki) for tissue kallikrein
Assay type: biochemical
Details: for Ki: literature method of Burton and Lowe, read-out: Ki, inhibition constant for tissue kallikrein
Method: Determination of Inhibition Constants (Ki) for Tissue Kallikrein
Inhibition constants of compounds 1, 2 and 3 for tissue kallikrein are determined according to the literature method described by Burton and Lowe. ^7 The results are listed in Table 4.

Ki [µM]	SMILES	inhibition efficacy compared with the original template (1) (tissue kallikrein inhibition, comparison in words)
> 100	N=C(N)c1ccc(Nc2nc(Cl)nc(Cl)n2)cc1 [2-(4-amidinophenylamino)-4,6-dichloro-s-triazine, reference compound]	
5.2	N=C(N)c1ccc(Nc2nc(Cl)nc(NCc3ccccc3)n2)cc1 [Compound 3]	approximately the same inhibition efficacy as that of the original template (1)
